System: 922993-354-T-J3-PDC complex spheroid viability
Test: Anticancer human tumor 922993-354-T-J3-PDC patient-derived endometrial carcinoma cell line growth inhibition [POLQ]
Settings: for IC50: curve of first compound; for viability, T/C: stronger effect = lower value
Outline: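 Three-cell-type spheroids modelling solid tumor plus stroma served as the readout system; POL inhibitors were tested individually and in combination, concentration ranges set by clinical Cmax where known.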

[1] = second compound 0.0316 µM, first compound 0.0316 µM
[2] = second compound 0.0316 µM, first compound 0.1 µM
[3] = second compound 0.0316 µM, first compound 0.316 µM
[4] = second compound 0.0316 µM, first compound 1 µM
[5] = second compound 0.0316 µM, first compound 3.16 µM
[6] = second compound 0.0316 µM, first compound 10 µM
[7] = second compound 0.1 µM, first compound 0.0316 µM
[8] = second compound 0.1 µM, first compound 0.1 µM
[9] = second compound 0.1 µM, first compound 0.316 µM
[10] = second compound 0.1 µM, first compound 1 µM
[11] = second compound 0.1 µM, first compound 3.16 µM
[12] = second compound 0.1 µM, first compound 10 µM
[13] = second compound 0.316 µM, first compound 0.0316 µM
[14] = second compound 0.316 µM, first compound 0.1 µM
[15] = second compound 0.316 µM, first compound 0.316 µM
[16] = second compound 0.316 µM, first compound 1 µM
[17] = second compound 0.316 µM, first compound 3.16 µM
[18] = second compound 0.316 µM, first compound 10 µM
[19] = second compound 1 µM, first compound 0.0316 µM
[20] = second compound 1 µM, first compound 0.1 µM
[21] = second compound 1 µM, first compound 0.316 µM
[22] = second compound 1 µM, first compound 1 µM
[23] = second compound 1 µM, first compound 3.16 µM
[24] = second compound 1 µM, first compound 10 µM
[25] = second compound 3.16 µM, first compound 0.0316 µM
[26] = second compound 3.16 µM, first compound 0.1 µM
[27] = second compound 3.16 µM, first compound 0.316 µM
[28] = second compound 3.16 µM, first compound 1 µM
[29] = second compound 3.16 µM, first compound 3.16 µM
[30] = second compound 3.16 µM, first compound 10 µM
[31] = second compound 10 µM, first compound 0.0316 µM
[32] = second compound 10 µM, first compound 0.1 µM
[33] = second compound 10 µM, first compound 0.316 µM
[34] = second compound 10 µM, first compound 1 µM
[35] = second compound 10 µM, first compound 3.16 µM
[36] = second compound 10 µM, first compound 10 µM
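Further: spheroids exposed to the agents for one week.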
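Wherever viability, T/C is given: 100% = DMSO vehicle control wells.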

CC1COCCN1c1cc(-c2ccnn2C)c2ccnc(-c3ccn[nH]3)c2n1 (centres undefined) + COC1C(OC(N)=O)C(O)C(Oc2ccc3c(O)c(NC(=O)c4ccc(O)c(CC=C(C)C)c4)c(=O)oc3c2C)OC1(C)C
IC50 (second compound 0.0316 µM): 121 nM
IC50 (second compound 0.1 µM): 185 nM
IC50 (second compound 0.316 µM): 172 nM
IC50 (second compound 1 µM): 152 nM
IC50 (second compound 3.16 µM): 143 nM
IC50 (second compound 10 µM): 117 nM
viability, T/C [1]: 83.5%
viability, T/C [2]: 54.2%
viability, T/C [3]: 27.8%
viability, T/C [4]: 11.2%
viability, T/C [5]: 10.4%
viability, T/C [6]: 11.8%
viability, T/C [7]: 94.4%
viability, T/C [8]: 69.9%
viability, T/C [9]: 33.7%
viability, T/C [10]: 9.37%
viability, T/C [11]: 8.43%
viability, T/C [12]: 10.4%
viability, T/C [13]: 95.1%
viability, T/C [14]: 68.4%
viability, T/C [15]: 29.5%
viability, T/C [16]: 12.7%
viability, T/C [17]: 9.09%
viability, T/C [18]: 11.2%
viability, T/C [19]: 78.6%
viability, T/C [20]: 55.4%
viability, T/C [21]: 39.7%
viability, T/C [22]: 10.2%
viability, T/C [23]: 8.85%
viability, T/C [24]: 10.6%
viability, T/C [25]: 89.9%
viability, T/C [26]: 60%
viability, T/C [27]: 27.9%
viability, T/C [28]: 9.41%
viability, T/C [29]: 7.96%
viability, T/C [30]: 11.8%
viability, T/C [31]: 82%
viability, T/C [32]: 53.3%
viability, T/C [33]: 26.8%
viability, T/C [34]: 8.03%
viability, T/C [35]: 9.82%
viability, T/C [36]: 10.7%

COc1cc2cc(C(=O)CCC(=O)O)sc2cc1OC + Nc1ccc(C#CCN(C(=O)Cc2ncc(C(F)(F)F)cc2C(F)(F)F)c2ccc(F)cc2)nn1
IC50 (second compound 0.0316 µM): > 10000 nM
IC50 (second compound 0.1 µM): > 10000 nM
IC50 (second compound 0.316 µM): > 10000 nM
IC50 (second compound 1 µM): > 10000 nM
IC50 (second compound 3.16 µM): > 10000 nM
IC50 (second compound 10 µM): > 10000 nM
viability, T/C [1]: 104%
viability, T/C [2]: 105%
viability, T/C [3]: 108%
viability, T/C [4]: 102%
viability, T/C [5]: 109%
viability, T/C [6]: 84.6%
viability, T/C [7]: 108%
viability, T/C [8]: 105%
viability, T/C [9]: 103%
viability, T/C [10]: 95.6%
viability, T/C [11]: 104%
viability, T/C [12]: 78.9%
viability, T/C [13]: 102%
viability, T/C [14]: 103%
viability, T/C [15]: 98.3%
viability, T/C [16]: 97.7%
viability, T/C [17]: 102%
viability, T/C [18]: 82.1%
viability, T/C [19]: 102%
viability, T/C [20]: 99.6%
viability, T/C [21]: 108%
viability, T/C [22]: 102%
viability, T/C [23]: 103%
viability, T/C [24]: 81%
viability, T/C [25]: 99%
viability, T/C [26]: 102%
viability, T/C [27]: 98.5%
viability, T/C [28]: 104%
viability, T/C [29]: 105%
viability, T/C [30]: 84%
viability, T/C [31]: 94.6%
viability, T/C [32]: 95.2%
viability, T/C [33]: 97.7%
viability, T/C [34]: 95%
viability, T/C [35]: 104%
viability, T/C [36]: 78.8%

— PubChem BioAssay AID1963830 (Molecular Pharmacology Branch, DTP, NCI, 2024)
